According to patent US9175038B2, “Peptide mimetic ligands of polo-like kinase 1 polo box domain and methods of use” (The United States of America, as represented by the …, priority 2009, dated 2015):
“Also recorded” adds a separate entry of the source. Like-named read-outs stand apart in the source and are kept apart here. Starred links: 1 amine or outer side, 2 acyl side, 3 side chain; linkers in the order of their positions; H or OH if unused. Non-standard residues stand in square brackets, D forms with d. Residues, ends and D or L forms follow the SMILES beside them. No end group written: not given here. X4 = C[C@@H](OP(=O)(O)OCCCCc1ccccc1)[C@H](N[*:1])C(=O)[*:2]; X3 = O=C([C@H](Cc1cncn1CCCCc1ccccc1)N[*:1])[*:2]; X2 = O=C(CN(CCCCCCCc1ccccc1)[*:1])[*:2]; pT = C[C@@H](OP(=O)(O)O)[C@H](N)C(=O)O; NPentylGly = CCCCCNCC(=O)O

Experiments:
[1] = target: T1, Plk1 PBD (Homo sapiens, UniProt P53350); assay: Isothermal titration calorimetry with recombinant Plk1 PBD; format: binding; details: Table 1
T1 construct: Two forms of Plk1 PBD (residues 326-603 and residues 367-603) were expressed as fusion constructs; His6-DsRed (N, cleaved yes); made in house; host or cells: E. coli BL21(DE3)pLysS or Rosetta 2
Procedure: Isothermal titration calorimetry analyses. The calorimetric titrations were carried out using purified recombinant PBDs (for Plk1 and Plk2) from bacterial cells and the indicated peptides. Further details are presented in Online Supplemental Materials.
Isothermal titration calorimetry analyses. The calorimetric titrations were performed on a VP-ITC titration calorimeter (Microcal, Inc., Northampton, Mass.). In a typical experiment, 5 μl aliquots of a phosphorylated peptide were injected from a 250 μl syringe into a rapidly mixing (300 rpm) solution of Plk1 PBD (cell volume=1.3472 ml). Control experiments involved injecting identical amounts of the peptide solution into buffer without Plk1 PBD. […] Titrations were carried out at 25° C. in 20 mM Tris-Cl (pH 7.5), 100 mM NaCl, 3 mM DTT. The isotherms, corrected for dilution/buffer effects, were fit using the Origin ITC Analysis software according to manufacturer's protocols. A nonlinear least-square method was used to fit the titration data and to calculate the errors. Consistent with the structural data, a 1:1 stoichiometry was assumed and the data were fit to a one-site binding model. From the binding curve, values for enthalpy and binding affinity were extracted. Thermodynamic parameters were calculated using ΔG=−RTlnKa, ΔG=ΔH−TΔS.
A TEV protease cleavage site was engineered between the tag and PBD. […] Cells were grown to an optical density of 0.4 at 30° C. with vigorous shaking. The cultures were cooled to 20° C., induced by addition of IPTG to a final concentration of 0.4 mM, and incubated for 12 h. The cells were harvested and the pellets were frozen prior to lysis. All subsequent purification was done at 4° C. The frozen pellets were thawed in buffer A (20 mM Tris-Cl, pH 8.0, 500 mM NaCl, 3 mM DTT) and lysed by addition of 4% v/v BugBuster 10× protein extraction reagent (Novagen) and 0.1 mg/ml of DNase I (Sigma). The lysate was centrifuged at 40000×g for 30 minutes to pellet the cell debris and filtered through a 0.2 μm filter. The lysate was loaded onto HisTrap HP columns (Amersham Biosciences, Piscataway, N.J.) with 100 mM imidazole, washed with 100 mM imidazole in buffer A, and eluted with 500 mM imidazole in buffer A. The peaks containing the fusion protein were digested with TEV protease (1:100 molar ratio) overnight by dialysis against buffer A. The digestion was reloaded onto HisTrap HP column without imidazole, washed with buffer A, and eluted with 80 mM imidazole in buffer A. A HiLoad 16/60 Superdex 75 gel filtration column (Amersham) equilibrated with buffer A was used as the final step in purification. Full length PBD was dialyzed against a low salt buffer (20 mM Tris-Cl, pH 7.5, 100 mM NaCl, 3 mM DTT), and used in calorimetry experiments. The truncated forms of PBD were used for crystallography. […] The resulting protein was digested with TEV protease to cleave the tag, flowed through Ni column, and then finally subjected to gel filtration.

[2] = system: HeLa cells; details: two days after electroporation
[3] = target: Flag-Plk1(K82M) (Homo sapiens, UniProt P53350, K82M); assay: Plk specificity pull-down from mixed HeLa lysates expressing Flag-Plk1, Flag-Plk2, Flag-Plk3 (Plk1 signal); details: for Plk1 binding in specificity pull-down (in words): mixed Flag-Plk1/2/3 HeLa lysates
[4] = target: T2, Plk1 (Homo sapiens, UniProt P53350); assay: Pull-down of Plk1 from mitotic HeLa lysates with bead-immobilized peptides
Target sequence in this assay (P53350 whole entry): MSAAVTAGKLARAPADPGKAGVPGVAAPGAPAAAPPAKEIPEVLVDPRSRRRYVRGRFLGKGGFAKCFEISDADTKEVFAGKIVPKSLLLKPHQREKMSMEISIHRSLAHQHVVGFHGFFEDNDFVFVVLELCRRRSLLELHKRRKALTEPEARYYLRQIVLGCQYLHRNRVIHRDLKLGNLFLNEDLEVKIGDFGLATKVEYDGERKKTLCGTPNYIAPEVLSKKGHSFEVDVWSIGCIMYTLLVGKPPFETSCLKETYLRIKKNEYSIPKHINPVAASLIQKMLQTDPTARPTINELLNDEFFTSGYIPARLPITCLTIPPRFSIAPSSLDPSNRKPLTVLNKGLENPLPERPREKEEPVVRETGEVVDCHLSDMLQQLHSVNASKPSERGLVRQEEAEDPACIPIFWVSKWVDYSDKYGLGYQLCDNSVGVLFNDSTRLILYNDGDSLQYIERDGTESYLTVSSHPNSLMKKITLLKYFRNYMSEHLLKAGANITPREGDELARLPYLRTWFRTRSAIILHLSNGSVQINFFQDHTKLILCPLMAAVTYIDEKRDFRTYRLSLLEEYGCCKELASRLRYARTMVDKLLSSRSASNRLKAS

[5] = target: T2, Plk1; assay: Kd (µM)
Target sequence in this assay (P53350 2-603 limits assumed): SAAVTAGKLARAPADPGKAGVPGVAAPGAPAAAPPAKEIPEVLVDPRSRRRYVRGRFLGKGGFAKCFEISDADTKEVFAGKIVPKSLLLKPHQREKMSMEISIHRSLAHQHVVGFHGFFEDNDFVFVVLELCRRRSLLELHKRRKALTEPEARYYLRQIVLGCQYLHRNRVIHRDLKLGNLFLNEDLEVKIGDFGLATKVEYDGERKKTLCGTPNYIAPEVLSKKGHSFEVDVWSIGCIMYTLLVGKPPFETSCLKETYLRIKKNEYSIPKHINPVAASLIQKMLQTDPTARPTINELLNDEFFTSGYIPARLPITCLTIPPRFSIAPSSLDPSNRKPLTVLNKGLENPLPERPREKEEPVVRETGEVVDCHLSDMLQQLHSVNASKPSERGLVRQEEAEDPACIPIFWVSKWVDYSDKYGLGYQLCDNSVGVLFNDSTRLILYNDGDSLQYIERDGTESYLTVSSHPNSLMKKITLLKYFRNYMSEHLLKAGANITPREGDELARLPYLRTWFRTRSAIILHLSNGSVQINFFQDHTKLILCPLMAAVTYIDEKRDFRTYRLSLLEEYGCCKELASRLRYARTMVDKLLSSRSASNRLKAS

[6] = target: T3, Plk1 PBD-p-Cdc25C interaction (Homo sapiens, UniProt P53350); assay: GST-PBD p-Cdc25C pull-down competition in mitotic HeLa lysates; format: binding; details: peptide added to mitotic HeLa lysates pre-incubated with GST-PBD
T3 construct: made in house; host or cells: GST-PBD from bacteria; p-Cdc25C endogenous in mitotic HeLa lysate

[7] = system: Plk1 localization to the centrosomes in HeLa cells; assay: Acute Cdc2 inhibition in nocodazole-arrested HeLa cells, Plk1 localization; format: cell-based, human; details: 200 nM, 10 min
Procedure: HeLa cells were cultured as subconfluent monolayers under the conditions recommended by American Type Culture Collection (Manassas, Va.). […] No mitotic exit was observed during the period of 10 min BMI-1026 treatment. For microinjection experiments with the Pmab-containing mimetic peptides, cells were arrested for 16 h with 2.5 mM thymidine (Sigma) and released into fresh medium. Two hours after release from the S phase block, the indicated peptides (2.5 mM stock in PBS) were microinjected into the cells using Eppendorf® Transjector 5246 (Eppendorf®, Westbury, N.Y.) at the 150 hPa pressure level and the 0.5 second injection time. All the cells in a single grid were injected and then further incubated to monitor cell cycle progression. For microinjection experiments with the F2Pmab-containing mimetic peptides, cells were arrested with 2.5 mM thymidine for 16 h twice with a 9 h release interval, and then released into fresh medium. Seven hours after release from the G1/S phase block, the indicated peptides (4 mM stock in PBS) were microinjected similarly as above. Where indicated, peptides containing the final concentration of 30 ng/μl of pEGFP-C1 vector (Clontech®, Mountain View, Calif.) were used to visualize the injected cells.

[8] = target: HA-EGFP-Plk1 (Homo sapiens, UniProt P53350); assay: ELISA-based PBD-binding inhibition assay (HA-EGFP-Plk1 binding to immobilized biotinylated p-T78 peptide)
[9] = target: T4, Plk2 PBD (Homo sapiens, UniProt Q9NYY3); assay: Isothermal titration calorimetry with recombinant Plk2 PBD; format: binding
T4 construct: The PBD of human Plk2 (residues 373 to 685) was cloned as a MBP fusion; MBP (cleaved yes); made in house; host or cells: bacterial cells
T4 sequence (Q9NYY3 373-685): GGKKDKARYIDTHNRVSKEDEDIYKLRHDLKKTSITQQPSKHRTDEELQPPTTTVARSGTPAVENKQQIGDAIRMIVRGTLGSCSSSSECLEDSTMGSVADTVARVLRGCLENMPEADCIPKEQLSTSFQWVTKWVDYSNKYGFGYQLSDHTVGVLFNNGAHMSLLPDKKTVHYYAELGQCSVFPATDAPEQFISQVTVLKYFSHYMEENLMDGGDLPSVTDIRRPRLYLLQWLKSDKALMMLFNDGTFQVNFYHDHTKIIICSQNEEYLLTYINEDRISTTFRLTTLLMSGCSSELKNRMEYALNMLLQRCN

[10] = bead-immobilized peptide, mitotic HeLa lysates, phosphatase inhibitors
[11] = competitor peptide at various concentrations

T1 sequence (P53350 326-603): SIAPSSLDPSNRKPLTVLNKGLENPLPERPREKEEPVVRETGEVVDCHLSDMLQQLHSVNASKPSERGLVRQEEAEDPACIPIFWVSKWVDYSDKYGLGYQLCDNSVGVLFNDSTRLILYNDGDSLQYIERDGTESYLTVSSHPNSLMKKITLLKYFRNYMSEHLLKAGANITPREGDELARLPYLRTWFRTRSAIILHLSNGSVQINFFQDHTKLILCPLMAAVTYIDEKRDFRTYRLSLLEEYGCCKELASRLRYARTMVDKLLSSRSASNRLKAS
T3 sequence (P53350 326-603 limits assumed): as the sequence (P53350 326-603) above
HA-EGFP-Plk1, sequence (P53350 whole entry): as the sequence (P53350 whole entry) above
Flag-Plk1(K82M), sequence (P53350 whole entry K82M): as the sequence (P53350 whole entry) above, with K82M counted along it

Molecule: PLHSpTA: 6-mer p-T78 peptide (PLHS[pT]A; also: in pull-downs N-terminal Cys-(CH2)6 linker cross-linked to beads)
- binding affinity to Plk1 PBD by ITC (in words) [1]: slightly higher affinities than the 5-mer peptides

Molecule: Biotin-(CH)6-PLHS-F2Pmab-A-NH2 [biotin-F2Pmab]
- Plk1 delocalization and apoptotic cell death (in words) [2]: leads to Plk1 delocalization and apoptotic cell death

Molecule: CC[C@H](C)[C@H](NC(=O)[C@H](C)NC(=O)[C@@H](NC(=O)[C@H](CO)NC(=O)[C@H](Cc1c[nH]cn1)NC(=O)[C@H](CC(C)C)NC(C)=O)[C@@H](C)OP(=O)(O)O)C(N)=O [LHSpTAI] (Ac-LHS[pT]AI-NH2)
- Plk1 binding in specificity pull-down (in words) [3]: preferentially precipitates Plk1
- Plk1 binding / precipitation by immobilized peptide (in words) [4, 10]: efficiently precipitated Plk1; also recorded: binding affinity of the latter is equivalent to that of the former
- binding affinity to Plk1 PBD by ITC (in words) [1]: slightly higher affinities than the 5-mer peptides
- Kd [5]: 247 ± 50 nM

Molecule: CC(=O)N[C@@H](CC(C)C)C(=O)N[C@@H](Cc1c[nH]cn1)C(=O)N[C@@H](CO)C(=O)N[C@H](C(N)=O)[C@@H](C)OP(=O)(O)O [LHSpT] (Ac-LHS[pT]-NH2)
- diminished binding affinity to Plk1 compared with PLHSpT ([4]; bead-immobilized peptide, mitotic HeLa lysates (FIG. 1A)): ~7 fold
- Plk1 binding / precipitation by immobilized peptide (in words) [4, 10]: bound to Plk1 better than SpTAI
- disruption of pre-formed PBD-p-Cdc25C complex (in words) [6]: much less effective than PLHSpT; also recorded: disrupted the complex weakly
- weaker binding than PLHSpT ([1]; ITC): ~50 fold
- binding affinity to Plk1 PBD by ITC (in words) [1]: much lower affinities

Molecule: Nc1nccc(-c2ccc(O)c(-c3ccnc(N)n3)c2)n1 [BMI-1026]
- centrosomal Plk1 signals (in words) [7]: greatly diminished the level of centrosomal Plk1 signals

Molecule: CC(=O)N1CCC[C@H]1C(=O)N[C@@H](CC(C)C)C(=O)N[C@@H](Cc1cncn1CCCCc1ccccc1)C(=O)N[C@@H](CO)C(=O)N[C@H](C(N)=O)[C@@H](C)OP(=O)(O)O [3h] (Ac-PL[X3]S[pT]-NH2)
- PBD-binding inhibition / binding potency in ELISA (in words) [8]: gave the highest binding affinity for minor product 3

Molecule: PLQSpT: His-2 to Gln mutant of PLHSpT (PLQS[pT])
- initial heats of interaction ([9]; ITC, peptide titrated into Plk2 PBD, no saturable binding): ~-1.1 kcal/mol

Molecule: HSpTAI: 5-mer p-T78 peptide lacking both Pro and Leu, bearing two additional C-terminal residues ({Cys-(CH2)6}-HS[pT]AI)
- Plk1 binding / precipitation by immobilized peptide (in words) [4, 10]: bound to Plk1 only weakly

Molecule: CC(=O)N1C[C@H]2C[C@H]1C(=O)N[C@@H](CC(C)C)C(=O)N[C@@H](Cc1cnc[nH]1)C(=O)N[C@@H](CO)C(=O)N[C@H](C(N)=O)[C@@H](C)OP(=O)(O)OCCC/C=C\O2 [FA507]
- PBD-binding inhibition / binding potency in ELISA (in words) [8, 11]: bound better than FA509

Molecule: PPHSpT: derivative of PLHSpT with Pro at the −3 position (PPHS[pT]; also: N-acetyl in the crystal (Ac-PPHSpT))
- diminished binding to Plk1 compared with PLHSpT ([3]; mixed Flag-Plk1/2/3 HeLa lysates (FIG. 3D)): 20 fold

Molecule: MLHSpT: Pro-4 to Met-4 mutant of PLHSpT (MLHS[pT])
- Plk1 binding in specificity pull-down (in words) [3]: greatly diminished level of Plk1 PBD binding

Molecule: CC(=O)N1CCC[C@H]1C(=O)N[C@@H](CC(C)C)C(=O)N[C@@H](Cc1cnc[nH]1)C(=O)N[C@@H](CO)C(=O)N[C@H](C(N)=O)[C@@H](C)OP(=O)(O)OCCCCc1ccccc1 [4h (Example 15)] (Ac-PLHS[X4]-NH2)
- PBD-binding inhibition / binding potency in ELISA (in words) [8, 11]: much less active than 3h, also less active than the WT

Molecule: CC(=O)N[C@@H](Cc1c[nH]cn1)C(=O)N[C@@H](CO)C(=O)N[C@H](C(=O)N[C@@H](C)C(N)=O)[C@@H](C)OP(=O)(O)O [HSpTA] (Ac-HS[pT]A-NH2)
- Plk1 binding / precipitation by immobilized peptide (in words) [4, 10]: bound to Plk1 better than SpTAI
- disruption of pre-formed PBD-p-Cdc25C complex (in words) [6]: disrupted the complex weakly
- binding affinity to Plk1 PBD by ITC (in words) [1]: much lower affinities

Molecule: HSpT: p-T78 peptide lacking both the Pro and Leu residues (His-Ser-[pT])
- Plk1 binding / precipitation by immobilized peptide (in words) [4, 10]: did not exhibit any significant level of binding

Molecule: CC(=O)N(CCCCCCCc1ccccc1)CC(=O)N[C@@H](CC(C)C)C(=O)N[C@@H](Cc1c[nH]cn1)C(=O)N[C@@H](CO)C(=O)N[C@H](C(N)=O)[C@@H](C)OP(=O)(O)O [4r] (Ac-[X2]LHS[pT]-NH2)
- PBD-binding inhibition / binding potency in ELISA (in words) [8]: gave the highest potency according to the ELISA assay results

Molecule: CC(=O)N[C@@H](CC(C)C)C(=O)N[C@@H](Cc1c[nH]cn1)C(=O)N[C@@H](CO)C(=O)N[C@H](C(=O)N[C@@H](C)C(N)=O)[C@@H](C)OP(=O)(O)O [LHSpTA, Ac-LHSpTA-NH2]
- interaction with Plk2 PBD by ITC (in words) ([9]; limit of detection 1 kcal/mol): virtually no interactions with Plk2
- Plk1 binding / precipitation by immobilized peptide (in words) [4]: bound to Plk1 almost as efficiently as PLHSpT
- disruption of pre-formed PBD-p-Cdc25C complex (in words) [6]: disrupted the pre-formed PBD-p-Cdc25C complex nearly as efficiently as PLHSpT

Molecule: PLHSpTAIYAD: 10-mer p-T78 peptide (PLHS[pT]AIYAD)
- Plk1 binding / precipitation by immobilized peptide (in words) [4, 10]: precipitated Plk1 from mitotic HeLa cells as the major binding protein

Molecule: CCCCCN(CC(=O)N[C@@H](CC(C)C)C(=O)N[C@@H](Cc1c[nH]cn1)C(=O)N[C@@H](CO)C(=O)N[C@H](C(N)=O)[C@@H](C)OP(=O)(O)O)C(C)=O [11A] (Ac-[NPentylGly]LHS[pT]-NH2)
- PBD-binding inhibition / binding potency in ELISA (in words) [8]: slightly higher binding affinity
